Reference: ChEMBL document CHEMBL4483862, “Open-source discovery of chemical leads for next-generation chemoprotective antimalarials” (2018)

System: Plasmodium berghei
Assay: Luciferase/luciferin-expressing antifolate-resistant parasites were used to infect a culture of HepG2 cells that were pre-incubated with compounds. Infected hepatocytes emit light due to the luciferase reaction. Assay results are presented as the percent inhibition of light emission compared to control. […]
Format: functional
Details: sporozoite; for IC90: read-out: LUCIFERASE INFECTION ASSAY - IC90

Structure (SMILES) | IC90 [µM] | further results
Cc1cc(N)c(N)cc1C | 6.18 | IC50 (PBLUC_HILL_SLOPE 0.927, PBLUC_R_SQUARED 0.706, read-out: LUCIFERASE INFECTION ASSAY - IC50): 0.577 µM
O=C(Nc1ncccc1O)c1ccc(S(=O)(=O)NCc2ccco2)cc1 | > 10 | IC50 (PBLUC_HILL_SLOPE 0.839, PBLUC_R_SQUARED 0.334, read-out: LUCIFERASE INFECTION ASSAY - IC50): 1.04 µM
Cc1cc(C)nc(-n2[nH]c(C)c(Cc3ccc(C(C)(C)C)cc3)c2=O)n1 | > 9.42 | IC50 (PBLUC_HILL_SLOPE 0.924, PBLUC_R_SQUARED 0.378, read-out: LUCIFERASE INFECTION ASSAY - IC50): 1.03 µM
Cc1noc(C)c1S(=O)(=O)N(Cc1ccc(C(=O)NC2CC2)cc1)C1CC1 | 3.5 | IC50 (PBLUC_HILL_SLOPE 0.781, PBLUC_R_SQUARED 0.696, read-out: LUCIFERASE INFECTION ASSAY - IC50): 0.21 µM
O/N=C1\CC(c2ccccc2)Sc2ccccc21 (configuration not stated) | > 12.9 | IC50 (PBLUC_HILL_SLOPE 0.783, PBLUC_R_SQUARED 0.658, read-out: LUCIFERASE INFECTION ASSAY - IC50): 3.88 µM
O=C(Nc1nc2ccc(Oc3ccccc3)cc2s1)C1=COCCO1 | > 10 | IC50 (PBLUC_HILL_SLOPE 0.789, PBLUC_R_SQUARED 0.599, read-out: LUCIFERASE INFECTION ASSAY - IC50): 5.28 µM
CN(C)c1ccc(C(c2ccc(N(C)C)cc2)c2ccc(Cl)c(Cl)c2)cc1 | > 8.26 | IC50 (PBLUC_HILL_SLOPE 0.805, PBLUC_R_SQUARED 0.379, read-out: LUCIFERASE INFECTION ASSAY - IC50): 3.91 µM
CC(=O)N1CCc2cc(S(=O)(=O)Nc3ccc(Cl)cc3)ccc21 | > 9.41 | IC50 (PBLUC_HILL_SLOPE 0.924, PBLUC_R_SQUARED 0.105, read-out: LUCIFERASE INFECTION ASSAY - IC50): > 9.41 µM
Cc1c(C)n(CCCN(C)C)c2ncn3nc(COc4ccccc4)nc3c12 | > 8.72 | IC50 (PBLUC_HILL_SLOPE 0.81, PBLUC_R_SQUARED 0.755, read-out: LUCIFERASE INFECTION ASSAY - IC50): 0.821 µM
O=[N+]([O-])c1cc(/C=C/c2nc3ccccc3s2)ccc1N1CCOCC1 | > 10 | IC50 (PBLUC_HILL_SLOPE 0.872, PBLUC_R_SQUARED 0.699, read-out: LUCIFERASE INFECTION ASSAY - IC50): 1.4 µM
Cc1cc(N2CCN(C)CC2)n2ncc(-c3ccccc3Cl)c2n1 | > 9.65 | IC50 (PBLUC_HILL_SLOPE 0.809, PBLUC_R_SQUARED 0.766, read-out: LUCIFERASE INFECTION ASSAY - IC50): 1.46 µM
c1ccc2sc(-c3nc4ccccc4s3)nc2c1 | > 10 | IC50 (PBLUC_HILL_SLOPE 0.811, PBLUC_R_SQUARED 0.754, read-out: LUCIFERASE INFECTION ASSAY - IC50): 1.16 µM
Cc1ccc[n+](CC(=O)c2ccc3c(c2)Cc2ccccc2-3)c1C | > 8.37 | IC50 (PBLUC_HILL_SLOPE 0.83, PBLUC_R_SQUARED 0.466, read-out: LUCIFERASE INFECTION ASSAY - IC50): > 8.37 µM
CCC(C)(C)c1ccc(Oc2ccc(NC(=O)COC(=O)c3cc(-c4cc(OC)c(OC)c(OC)c4)nc4ccccc34)cc2)cc1 | > 10 | IC50 (PBLUC_HILL_SLOPE 0.863, PBLUC_R_SQUARED 0.508, read-out: LUCIFERASE INFECTION ASSAY - IC50): 2.17 µM
CCCOc1ccc(C(F)(F)F)cc1NC(=O)c1nc2nccc(C)n2n1 | 3 | IC50 (PBLUC_HILL_SLOPE 0.895, PBLUC_R_SQUARED 0.844, read-out: LUCIFERASE INFECTION ASSAY - IC50): 0.258 µM
CN(C)CCNc1ccnc2c(-c3ccc4ccccc4c3)cnn12 | > 9.96 | IC50 (PBLUC_HILL_SLOPE 0.931, PBLUC_R_SQUARED 0.843, read-out: LUCIFERASE INFECTION ASSAY - IC50): 1.06 µM
COc1cccc(-c2nc3ccc(NC(=O)CC(C)(C)C)cn3n2)c1 | > 10 | IC50 (PBLUC_HILL_SLOPE 0.895, PBLUC_R_SQUARED 0.614, read-out: LUCIFERASE INFECTION ASSAY - IC50): 0.974 µM
COc1cccc(Nc2nccc3c2cc(-c2cccc(OC)c2)n3C)c1 | > 10 | IC50 (PBLUC_HILL_SLOPE 0.902, PBLUC_R_SQUARED 0.605, read-out: LUCIFERASE INFECTION ASSAY - IC50): 2.59 µM
COc1cccc(NC(=O)c2cc(C)n(Cc3cccs3)c2C)c1 | > 9.69 | IC50 (PBLUC_HILL_SLOPE 0.906, PBLUC_R_SQUARED 0.33, read-out: LUCIFERASE INFECTION ASSAY - IC50): 6.44 µM
C=CCSc1nnc(-c2ccc(C(C)(C)C)cc2)n1-c1ccc(Cl)cc1 | > 8.59 | IC50 (PBLUC_HILL_SLOPE 0.788, PBLUC_R_SQUARED 0.735, read-out: LUCIFERASE INFECTION ASSAY - IC50): > 8.59 µM
OC(c1cn2cc(-c3ccc(F)cc3)nc2s1)(C(F)(F)F)C(F)(F)F | 6.57 | IC50 (PBLUC_HILL_SLOPE 0.791, PBLUC_R_SQUARED 0.914, read-out: LUCIFERASE INFECTION ASSAY - IC50): 0.408 µM

Structure (SMILES) | IC90 [µM] | further results
CCc1cccc2c(/C=C(\C#N)C(=O)C(C)(C)C)c[nH]c12 | > 10 | IC50 (PBLUC_HILL_SLOPE 0.872, PBLUC_R_SQUARED 0.606, read-out: LUCIFERASE INFECTION ASSAY - IC50): 6.24 µM
Clc1ccc(/C=C/c2cnc3ccccc3n2)cc1 | > 12.4 | IC50 (PBLUC_HILL_SLOPE 0.854, PBLUC_R_SQUARED 0.483, read-out: LUCIFERASE INFECTION ASSAY - IC50): 2.04 µM
COc1cccc(/C=N/NC(=O)C2CCCN(C(=S)NNC3CC4C=CC3C4)CC2)c1O (configuration not stated) | > 7.21 | IC50 (PBLUC_HILL_SLOPE 0.853, PBLUC_R_SQUARED 0.602, read-out: LUCIFERASE INFECTION ASSAY - IC50): 1.47 µM
Cc1ccc(NC(=O)c2cc3c(s2)CCCCCC3)nc1 | 5.93 | IC50 (PBLUC_HILL_SLOPE 0.925, PBLUC_R_SQUARED 0.636, read-out: LUCIFERASE INFECTION ASSAY - IC50): 0.551 µM
CC(C)Cc1ccc(C(C)NC(=O)c2ccc(CN3CCCC3)cc2)cc1 (configuration not stated) | > 10 | IC50 (PBLUC_HILL_SLOPE 0.907, PBLUC_R_SQUARED 0.512, read-out: LUCIFERASE INFECTION ASSAY - IC50): 2.16 µM
Cc1ccc(/C=C2\CCc3c2nc2ccccc2c3C(=O)OCc2cccc(S(=O)(=O)N(C)C)c2)cc1 | > 10 | IC50 (PBLUC_HILL_SLOPE 0.892, PBLUC_R_SQUARED 0.634, read-out: LUCIFERASE INFECTION ASSAY - IC50): 1.2 µM
CN1CCN(c2ccc(NC(=O)c3csc4c3CCCC4)cc2)CC1 | 4.98 | IC50 (PBLUC_HILL_SLOPE 0.882, PBLUC_R_SQUARED 0.629, read-out: LUCIFERASE INFECTION ASSAY - IC50): 0.413 µM
CCc1c(C(=O)Nc2ccn(CCc3ccccn3)n2)cnn1C(C)(C)C | 2.23 | IC50 (PBLUC_HILL_SLOPE 0.847, PBLUC_R_SQUARED 0.391, read-out: LUCIFERASE INFECTION ASSAY - IC50): 0.166 µM
CC(C)(C)c1ccc(C(=O)Nc2cc(F)ccc2F)s1 | 0.55 | IC50 (PBLUC_HILL_SLOPE 0.906, PBLUC_R_SQUARED 0.913, read-out: LUCIFERASE INFECTION ASSAY - IC50): 0.0487 µM
Cc1cc(C(=O)NCCSc2ccccc2)c(C)n1C(C)C | 6.44 | IC50 (PBLUC_HILL_SLOPE 0.93, PBLUC_R_SQUARED 0.762, read-out: LUCIFERASE INFECTION ASSAY - IC50): 0.607 µM
O=C(Nc1ccc(Cl)c(Cl)c1)Nc1ccnn1C1CCCCC1 | > 10 | IC50 (PBLUC_HILL_SLOPE 0.873, PBLUC_R_SQUARED 0.34, read-out: LUCIFERASE INFECTION ASSAY - IC50): > 10 µM
O=C(NC1CCN(c2nccc(C(F)(F)F)n2)CC1)c1ccco1 | > 9.7 | IC50 (PBLUC_HILL_SLOPE 0.897, PBLUC_R_SQUARED 0.83, read-out: LUCIFERASE INFECTION ASSAY - IC50): 2.6 µM
Cc1ccc2c(c1)C1CN(C)CCC1N2C(=O)c1cc2c(s1)CCCC2 (configuration not stated) | > 10 | IC50 (PBLUC_HILL_SLOPE 0.917, 1.13, PBLUC_R_SQUARED 0.241, 0.572, read-out: LUCIFERASE INFECTION ASSAY - IC50): 2.93 µM
Cc1ccsc1CN(C)C(C)C(=O)Nc1cc(C(F)(F)F)ccc1N1CCOCC1 (configuration not stated) | > 10 | IC50 (PBLUC_HILL_SLOPE 0.840, 16.2, PBLUC_R_SQUARED 0.288, 0.265, read-out: LUCIFERASE INFECTION ASSAY - IC50): > 10 µM
Cc1cc(C(=O)C(C)Sc2nnnn2C2CC2)c(C)n1-c1ccccc1 (configuration not stated) | 7.24 | IC50 (PBLUC_HILL_SLOPE 0.896, PBLUC_R_SQUARED 0.762, read-out: LUCIFERASE INFECTION ASSAY - IC50): 0.623 µM
CC(C)(C)c1ccc(NC(=O)c2ccc[nH]c2=S)cc1 | 0.656 | IC50 (PBLUC_HILL_SLOPE 0.943, PBLUC_R_SQUARED 0.946, read-out: LUCIFERASE INFECTION ASSAY - IC50): 0.0638 µM
CCOC(=O)CSCc1noc(COc2ccc(Cl)cc2Cl)n1 | 0.26 | IC50 (PBLUC_HILL_SLOPE 0.923, PBLUC_R_SQUARED 0.877, read-out: LUCIFERASE INFECTION ASSAY - IC50): 0.0241 µM
Cc1ccc(S(=O)(=O)Oc2cc(C)ccc2C)cc1 | > 11.9 | IC50 (PBLUC_HILL_SLOPE 0.836, PBLUC_R_SQUARED 0.347, read-out: LUCIFERASE INFECTION ASSAY - IC50): 4.27 µM
CN(Cc1nc2ccccc2s1)Cn1cnc2c(=O)n(C)c(=O)n(C)c21 | > 10 | IC50 (PBLUC_HILL_SLOPE 0.862, PBLUC_R_SQUARED 0.121, read-out: LUCIFERASE INFECTION ASSAY - IC50): 9.69 µM
c1ccc(CNCc2cn(-c3ccccc3)nc2-c2ccncc2)cc1 | > 8.76 | IC50 (PBLUC_HILL_SLOPE 0.853, PBLUC_R_SQUARED 0.208, read-out: LUCIFERASE INFECTION ASSAY - IC50): > 8.76 µM
